# Assays:
# MCF7 = test: compound was tested in vitro for inhibition activity against a sensitive human breast carcinoma line cells.; type: functional, cell-based
# NCI/ADR-RES = test: compound was tested in vitro for inhibition activity against doxorubicin resistant counterpart of human breast carcinoma line cells.; type: functional, cell-based
IC50 (MCF7) [nM equiv l-1],Compound,IC50 (NCI/ADR-RES) [nM equiv l-1]
300,COc1cccc2c1C(=O)c1c(O)c3c(c(O)c1C2=O)C[C@@](O)(C(=O)CO)C[C@@H]3O[C@H]1C[C@H](N)[C@H](O)[C@H](C)O1 [DOXORUBICIN],10000
8,COc1cccc2c1C(=O)c1c(O)c3c(c(O)c1C2=O)C[C@@](O)(C(C)=O)C[C@@H]3OC1CC2C(OCN2CN2COC3C(C)OC(O[C@H]4C[C@](O)(C(C)=O)Cc5c(O)c6c(c(O)c54)C(=O)c4c(OC)cccc4C6=O)CC32)C(C)O1 (stereo partly drawn) [DAUNOFORM],10
60,COc1cccc2c1C(=O)c1c(O)c3c(c(O)c1C2=O)C[C@@](O)(C(C)=O)C[C@@H]3O[C@H]1C[C@H](N)[C@H](O)[C@H](C)O1 [DAUNORUBICIN],2000

Compound,IC50 (MCF7) [nM equiv l-1],IC50 (NCI/ADR-RES) [nM equiv l-1]
COc1cccc2c1C(=O)c1c(O)c3c(c(O)c1C2=O)C[C@@](O)(C(=O)CO)C[C@@H]3OC1CC2C(OCN2CN2COC3C(C)OC(O[C@H]4C[C@](O)(C(=O)CO)Cc5c(O)c6c(c(O)c54)C(=O)c4c(OC)cccc4C6=O)CC32)C(C)O1 (stereo partly drawn) [DOXOFORM],2,1
